Results taken from patent US8466176B2 (priority 2008, dated 2013).

What was measured:
[1] = logP by HPLC on reversed phase columns, method [a], pH 2.3 with 0.1% phosphoric acid and acetonitrile; format: physicochemical; settings: method [a]: pH 2.3, 0.1% phosphoric acid and acetonitrile as eluent, EEC directive 79/831 Annex V.A8, reversed phase HPLC; for chromatographic logP: reversed phase HPLC columns, read-out: log p
[2] = logP(HCOOH) reported with HPLC/MS
Phytophthora infestans = assay: whole plant or invertebrate; format: in vivo; settings: in Solanum lycopersicum, 168 h, read-out: efficacy
[3] = reversed phase HPLC column, pH 2.7, log p, method [b]: LC-MS at pH 2.7, 0.1% formic acid in water and acetonitrile, linear gradient 10% to 95% acetonitrile
[4] = HCOOH (formic acid), logP(HCOOH), HPLC/MS

| Compound | log p [1] | also measured |
| --- | --- | --- |
| C#Cc1cccc(CON=C(c2ccccc2)c2nnnn2C)n1 [Example 19] | 2.69^[a]; | log p ([2]; method [b]: LC-MS at pH 2.7, 0.1% formic acid in water and acetonitrile, linear gradient 10% to 95% acetonitrile): 2.7^[b] |
| CCCCCCOc1cccc(CON=C(c2ccccc2)c2nnnn2C)n1 [Example 20, N-{[6-(hexyloxy)pyridin-2-yl]methoxy}-1-(1-methyl-1H-tetrazol-5-yl)-1-phenylmethanimine] | – | chromatographic logP [1]: 5.39; chromatographic logP ([2]; logP(HCOOH), HPLC/MS): 5.39 |
| CCCCC#Cc1cccc(CON=C(c2ccccc2)c2nnnn2C)n1 [Example 23, N-{[6-(hex-1-yn-1-yl)pyridin-2-yl]methoxy}-1-(1-methyl-1H-tetrazol-5-yl)-1-phenylmethanimine] | – | pest or weed control at 500 ppm (Phytophthora infestans): ≥ 70% |
| Cn1nnnc1C(=NOCc1cccc(C#CC2CCCCC2)n1)c1ccccc1 [Example 30] | 4.77^[a] | – |
| Cn1nnnc1C(=NOCc1csc(Br)n1)c1ccccc1 [Example 32, N-[(2-bromo-1,3-thiazol-4-yl)methoxy]-1-(1-methyl-1H-tetrazol-5-yl)-1-phenyl-methanimine] | – | pest or weed control at 500 ppm (Phytophthora infestans): ≥ 70%; chromatographic logP ([2]; logP(HCOOH), HPLC/MS): 3.11 |
| COc1cccc(-c2cccc(CON=C(c3ccccc3)c3nnnn3C)n2)c1 [Example 33] | 3.89^[a] | – |
| Cn1nnnc1C(=NOCc1cccc(-c2ccc(C(F)(F)F)cc2)n1)c1ccccc1 [Example 34] | 4.62^[a] | – |
| Cn1nnnc1C(=NOCc1cccc(-c2ccc(-c3ccccc3)cc2)n1)c1ccccc1 [Example 35] | 5.05^[a] | – |
| Cn1nnnc1C(=NOCc1cccc(-c2ccc(OCc3ccccc3)cc2)n1)c1ccccc1 [Example 36] | 4.89^[a] | – |
| CN(CCc1ccccc1)c1nc(CON=C(c2ccccc2)c2nnnn2C)cs1 [Example 37] | 3.96^[a] | – |
| CCc1ccc(-c2cccc(CON=C(c3ccccc3)c3nnnn3C)n2)cc1 [Example 38] | 4.7^[a] | – |
| CCCCOc1ccc(-c2cccc(CON=C(c3ccccc3)c3nnnn3C)n2)cc1 [Example 39] | 5.2^[a] | – |
| Cn1nnnc1C(=NOCc1cccc(-c2ccc(OC(F)(F)F)cc2)n1)c1ccccc1 [Example 40] | 4.73^[a] | – |
| Cn1nnnc1C(=NOCc1cccc(-c2cc(Cl)cc(Cl)c2)n1)c1ccccc1 [Example 41] | 5.23^[a] | – |
| CCCCOc1cccc(-c2cccc(CON=C(c3ccccc3)c3nnnn3C)n2)c1 [Example 44] | 5.2^[a] | – |
| Cn1nnnc1C(=NOCc1cccc(-c2cccc(C(F)(F)F)c2)n1)c1ccccc1 [Example 45] | 4.56^[a] | – |
| COCCCN(C)c1nc(CON=C(c2ccccc2)c2nnnn2C)cs1 [Example 46] | 2.59^[a] | – |
| Cn1nnnc1C(=NOCc1cccc(-c2cccc(Cl)c2)n1)c1ccccc1 [Example 47] | 4.49^[a] | – |
| CN(Cc1ccccc1)c1nc(CON=C(c2ccccc2)c2nnnn2C)cs1 [Example 48] | 3.89^[a] | – |
| Cn1nnnc1C(=NOCc1csc(N2CCCCC2)n1)c1ccccc1 [Example 49] | 3.39^[a] | – |
| CCCCCCN(C)c1nc(CON=C(c2ccccc2)c2nnnn2C)cs1 [Example 50] | 4.56^[a] | – |
| CCCCCN(C)c1nc(CON=C(c2ccccc2)c2nnnn2C)cs1 [Example 51] | 4.01^[a] | – |
| Cn1nnnc1C(=NOCc1csc(C#Cc2ccccc2)n1)c1ccccc1 [Example 59] | 4.16^[a] | – |
| CC(C)CC#Cc1nc(CON=C(c2ccccc2)c2nnnn2C)cs1 [Example 61] | 4.34^[a] | – |
| Cn1nnnc1C(=NOCc1csc(C#CCCCc2ccccc2)n1)c1ccccc1 [Example 62] | 4.78^[a] | – |

| Compound | log p [1] | also measured |
| --- | --- | --- |
| CCCC(C)C#Cc1nc(CON=C(c2ccccc2)c2nnnn2C)cs1 (centres unmarked) [Example 64] | 4.78^[a] | – |
| CC(C)CCC#Cc1nc(CON=C(c2ccccc2)c2nnnn2C)cs1 [Example 65] | 4.75^[a] | – |
| Cn1nnnc1C(=NOCc1csc(C#CCC2CCCC2)n1)c1ccccc1 [Example 66] | 4.92^[a] | – |
| Cn1nnnc1C(=NOCc1csc(C#CCC2CCCCC2)n1)c1ccccc1 [Example 67] | 5.32^[a] | – |
| Cn1nnnc1C(=NOCc1csc(C#CC2CCCCC2)n1)c1ccccc1 [Example 68] | 4.89^[a] | – |
| Cn1nnnc1C(=NOCc1csc(C#CC2CCCC2)n1)c1ccccc1 [Example 69] | 4.49^[a] | – |
| COCC#Cc1nc(CON=C(c2ccccc2)c2nnnn2C)cs1 [Example 71] | 2.92^[a] | – |
| CCCCC#Cc1nc(CON=C(c2ccccc2)c2nnnn2C)cs1 [Example 72] | 4.36^[a] | – |
| Cn1nnnc1C(=NOCc1cccc(C(F)(F)C(F)(F)C(F)(F)C(F)(F)C(F)(F)C(F)(F)C(F)(F)F)n1)c1ccccc1 [Example 73] | 5.86^[a] | – |
| CCCCCSc1cccc(CON=C(c2ccccc2)c2nnnn2C)n1 [Example 74, 1-(1-methyl-1H-tetrazol-5-yl)-N-{[6-(pentylsulfanyl)pyridin-2-yl]methoxy}-1-phenylmethanimine] | – | chromatographic logP [1]: 5.14; chromatographic logP ([2]; HPLC/MS, logP(HCOOH)): 5.97 |
| Cn1nnnc1C(=NOCc1cccc(NCCC2CCCCC2)n1)c1ccccc1 [Example 80, N-(2-cyclohexylethyl)-6-[({[(1-methyl-1H-tetrazol-5-yl)(phenyl)methylene]amino}oxy)methyl]pyridin-2-amine] | – | pest or weed control at 500 ppm (Phytophthora infestans): ≥ 70% |
| CCCCC/C=C/c1nc(CON=C(c2ccccc2)c2nnnn2C)cs1 [Example 81] | 5.05^[a] | – |
| CCCCCC/C=C/c1nc(CON=C(c2ccccc2)c2nnnn2C)cs1 [Example 82] | 5.53^[a] | – |
| COc1cccc(/C=C/c2cccc(CON=C(c3ccccc3)c3nnnn3C)n2)c1 [Example 87] | 4.14^[a] | – |
| Cn1nnnc1C(=NOCc1csc(/C=C/Cc2ccccc2)n1)c1ccccc1 [Example 88] | 4.29^[a] | – |
| Cn1nnnc1C(=NOCc1csc(/C=C/C2CCCCC2)n1)c1ccccc1 [Example 89] | 5.14^[a] | – |
| CCCCC/C=C/c1cccc(CON=C(c2ccccc2)c2nnnn2C)n1 [Example 90] | 5^[a] | – |
| Cn1nnnc1C(=NOCc1cccc(/C=C/c2cccc(F)c2)n1)c1ccccc1 [Example 91] | 4.29^[a] | – |
| CCCCCC/C=C/c1cccc(CON=C(c2ccccc2)c2nnnn2C)n1 [Example 92] | 5.5^[a] | – |
| Cn1nnnc1C(=NOCc1cccc(/C=C/Cc2ccccc2)n1)c1ccccc1 [Example 94] | 4.31^[a] | – |
| Cn1nnnc1C(=NOCc1cccc(/C=C/c2cc(F)cc(F)c2)n1)c1ccccc1 [Example 95] | 4.49^[a] | – |
| CCCCC#Cc1ccc(F)c(CON=C(c2ccccc2)c2nnnn2C)n1 [Example 99, N-{[3-fluoro-6-(hex-1-yn-1-yl)pyridin-2-yl]methoxy}-1-(1-methyl-1H-tetrazol-5-yl)-1-phenylmethanimine] | – | pest or weed control at 500 ppm (Phytophthora infestans): ≥ 70%; chromatographic logP ([2]; logP(HCOOH), HPLC/MS): 4.41; chromatographic logP [2, 3]: 4.41 |
| Cn1nnnc1C(=NOCc1nc(Cl)sc1Cl)c1ccccc1 [Example 113, N-[(2,5-dichloro-1,3-thiazol-4-yl)methoxy]-1-(1-methyl-1H-tetrazol-5-yl)-1-phenylmethanimine] | – | pest or weed control at 500 ppm (Phytophthora infestans): ≥ 70%; chromatographic logP [2, 4]: 3.67; chromatographic logP [2, 3]: 3.67 |
| Cn1nnnc1C(=NOCc1nc(C#CC2CC2)sc1Cl)c1ccccc1 [Example 114, N-{[5-chloro-2-(cyclopropylethynyl)-1,3-thiazol-4-yl]methoxy}-1-(1-methyl-1H-tetrazol-5-yl)-1-phenylmethanimine] | – | pest or weed control at 500 ppm (Phytophthora infestans): ≥ 70%; chromatographic logP [2, 4]: 4.59; chromatographic logP [2, 3]: 4.59 |
